# Earlier results as cited in US20170140533A1, “SYSTEM AND METHOD FOR AUTOMATED DETECTION AND MONITORING OF DYSPLASIA AND ADMINISTRATION OF IMMUNOTHERAPY AND CHEMOTHERAPY” (VISIONGATE, INC., priority 2015, published 2017).
# Assays:
# T cells = conditions: in vitro
# [1] = tested on: immune response in SSc patients
compound,measurement,setting,value
CC#CCC(C)[C@H](O)/C=C/[C@@H]1[C@H]2C/C(=C/CCCC(=O)O)C[C@H]2C[C@H]1O (stereo partly drawn) [Iloprost],RANKL,T cells,increased
same,T cell and TNF alpha production,T cells,reduces
same,IFN gamma production,[1]; SSc patients,No effect
same,T regulatory cells number,[1]; SSc patients,reduces
same,serum IL-2,"[1]; SSc patients, serum",increases
same,T regulatory cells activity,[1]; after immune stimulation,increases
same,persistence of serum IL-2 increase after the last infusion,[1]; after the last infusion,28 days
same,RANKL,[1]; in vivo,increased
same,T cell and TNF alpha production,"[1]; in vivo, SSc patients",reduces
